Measurements as given in patent publication US6620849B2, “Potassium channel inhibitors” (ICAFEN, Inc., priority 2000, dated 2003).
Read-outs that look alike come from different tables or passages of the source.

Target: T1, Kv1.5 potassium channel (Homo sapiens, UniProt P22460)
T1 construct: expressed in transfected cells
Assay: Whole-cell patch clamp electrophysiological recording of Kv1.5 currents in CHO cells
Assay type: cell-based
Settings: CHO cells stably expressing Kv1.5, whole-cell voltage clamp, holding potential −80 mV, one depolarization every 10 seconds
Experimental: Electrophysiological recordings of potassium currents in Chinese hamster ovary cells stably expressing the gene construct for the Kv1.5 potassium channel subunit were performed using the whole cell configuration of the patch clamp technique (Hamill et al., Pflugers Archiv 391:85, 1981). Cell lines expressing Kv1.5 were prepared using standard techniques known to those skilled in the art. Cells were plated on glass coverslips at a density of 2×10^4 cells/coverslip and used within 24-48 hours. Solutions used for electrophysiological recordings were as follows. Extracellular bathing solutions typically contain (in mM) 132 NaCl, 5.4 KCl, 1.8 CaCl2, 0.8 MgCl2, 10 HEPES, 5 glucose at pH 7.3. Electrode pipette solutions (intracellular solution) for measuring Kv1.5 typically contain (in mM) 100 KF, 40 KCl, 5 NaCl, 2 MgCl2, 5 EGTA, 10 HEPES and 5 glucose at pH 7.4, 295 mOsm and has a resistance of about 1-2 MΩ. The coverslips were placed in a small chamber (volume ˜200 μl) on the mechanical stage of an inverted microscope and perfused (approximately 2 ml/min) with extracellular recording solution. Drug was applied using a series of narrow-bore glass capillary tubes (inner diameter ˜100 μm) positioned approximately 200 μm from the cell.
As soon as the current recording was stable, a compound representative of the present invention was superfused over the cell until steady-state block was observed. Using this technique, the effects of the compound on peak and steady-state current were determined at progressively increasing compound concentrations.
The testing results of selected compounds from Table 2 using this assay and the techniques described above are reported in Table 3 as the percent inhibition of Kv1.5 potassium channel currents at a single concentration of 0.1 μM.

[1] = read-out: Peak Current Inhibition at 0.1 μM (%)
[2] = read-out: Steady-state Current Inhibition at 0.1 μM (%)

T1 sequence (P22460 whole entry): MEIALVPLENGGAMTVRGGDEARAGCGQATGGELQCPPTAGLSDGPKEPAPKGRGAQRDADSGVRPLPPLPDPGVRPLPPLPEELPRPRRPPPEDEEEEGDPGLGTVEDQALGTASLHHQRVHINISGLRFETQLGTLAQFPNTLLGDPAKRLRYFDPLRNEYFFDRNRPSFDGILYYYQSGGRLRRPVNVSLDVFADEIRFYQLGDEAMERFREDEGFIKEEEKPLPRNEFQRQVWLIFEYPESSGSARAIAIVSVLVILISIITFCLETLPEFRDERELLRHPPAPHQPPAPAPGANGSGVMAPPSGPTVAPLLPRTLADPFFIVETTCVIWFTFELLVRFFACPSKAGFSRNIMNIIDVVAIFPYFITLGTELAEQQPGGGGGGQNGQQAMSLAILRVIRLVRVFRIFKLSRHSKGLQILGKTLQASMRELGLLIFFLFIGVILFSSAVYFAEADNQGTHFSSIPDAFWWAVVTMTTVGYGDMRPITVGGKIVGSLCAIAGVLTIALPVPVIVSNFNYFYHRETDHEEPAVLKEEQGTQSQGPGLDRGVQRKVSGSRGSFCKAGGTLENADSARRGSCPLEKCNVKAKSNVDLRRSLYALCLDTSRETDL

| Compound | inhibition at 0.1 µM [1] [%] | inhibition at 0.1 µM [2] [%] |
| --- | --- | --- |
| Cn1ccnc1CN(C(=O)[C@@H]1C[C@H]1c1ccc(F)cc1)c1ccc2c(c1)[C@@H](NS(=O)(=O)c1ccc(F)c(Cl)c1)CCC2 [Example 32] | 70 | 91 |
| Cc1cccc(CN(C(=O)[C@@H]2C[C@H]2c2ccccc2)c2ccc3c(c2)[C@@H](NS(=O)(=O)c2ccc(Cl)cc2)CCC3)n1 [Example 16] | 42 | 80 |
| Cn1ccnc1CN(C(=O)[C@@H]1C[C@H]1c1ccc(F)cc1)c1ccc2c(c1)[C@@H](NS(=O)(=O)c1cccc(F)c1)CCC2 [Example 30] | 80 | 93 |
| Cc1cccc(CN(C(=O)C2CC2c2ccccc2)c2ccc3c(c2)C(NS(=O)(=O)c2ccc(F)cc2)CCC3)n1 (stereo not shown) [Example 10] | 24 | 53 |
| Cn1ccnc1CN(C(=O)[C@H]1C[C@@H]1c1ccc(Cl)cc1)c1ccc2c(c1)[C@H](NS(=O)(=O)c1ccccc1)CCC2 [Example 54] | 57 | 82 |
| Cc1cccc(CN(C(=O)C2CC2c2ccccc2)c2ccc3c(c2)C(NS(=O)(=O)c2ccccc2Cl)CCC3)n1 (stereo not shown) [Example 9] | 60 | 82 |
| Cc1cccc(CN(C(=O)[C@@H]2C[C@H]2c2ccccc2)c2ccc3c(c2)[C@@H](NS(=O)(=O)c2cccc(Cl)c2)CCC3)n1 [Example 14] | 42 | 81 |
| CCc1ccc(S(=O)(=O)N[C@H]2CCCc3ccc(N(Cc4nccn4C)C(=O)[C@@H]4C[C@H]4c4ccc(Cl)cc4)cc32)cc1 [Example 48] | 70 | 95 |
| Cn1ccnc1CN(C(=O)[C@@H]1C[C@H]1c1ccccc1)c1ccc2c(c1)[C@@H](NS(=O)(=O)c1ccc(Cl)cc1)CCC2 [Example 4] | 64 | 76 |
| Cn1ccnc1CN(C(=O)[C@@H]1C[C@H]1c1ccc(C(F)(F)F)cc1)c1ccc2c(c1)[C@@H](NS(=O)(=O)c1ccccc1F)CCC2 [Example 43] | 47 | 72 |
| Cc1ncc(CN(C(=O)C2CC2c2ccccc2)c2ccc3c(c2)C(NS(=O)(=O)c2ccc(F)cc2)CCC3)n1CC(C)C (stereo not shown) [Example 5] | 39 | 50 |
| Cc1cccc(CN(C(=O)[C@@H]2C[C@H]2c2ccc(C(F)(F)F)cc2)c2ccc3c(c2)[C@@H](NS(=O)(=O)c2ccccc2F)CCC3)n1 [Example 39] | 50 | 69 |
| Cn1ccnc1CN(C(=O)[C@H]1C[C@@H]1c1ccc(Cl)cc1)c1ccc2c(c1)[C@@H](NS(=O)(=O)c1ccc(F)cc1)CCC2 [Example 25] | 35 | 69 |
| Cn1ccnc1CN(C(=O)[C@@H]1C[C@H]1c1ccc(Cl)cc1)c1ccc2c(c1)[C@@H](NS(=O)(=O)c1ccccc1)CCC2 [Example 44] | 71 | 92 |
| Cn1ccnc1CN(C(=O)[C@@H]1C[C@H]1c1ccccc1)c1ccc2c(c1)[C@@H](NS(=O)(=O)c1ccccc1)CCC2 [Example 6] | 72 | 78 |
| Cn1ccnc1CN(C(=O)[C@@H]1C[C@H]1c1ccc(F)cc1)c1ccc2c(c1)[C@@H](NS(=O)(=O)c1ccc(F)cc1)CCC2 [Example 31] | 70 | 84 |
| Cn1ccnc1CN(C(=O)[C@@H]1C[C@H]1c1ccc(F)cc1)c1ccc2c(c1)[C@@H](NS(=O)(=O)c1ccccc1F)CCC2 [Example 29] | 68 | 78 |
| Cc1cccc(CN(C(=O)[C@@H]2C[C@H]2c2ccccc2)c2ccc3c(c2)[C@@H](NS(=O)(=O)c2ccccc2)CCC3)n1 [Example 12] | 57 | 96 |
| Cc1cccc(CN(C(=O)[C@@H]2C[C@H]2c2ccccc2)c2ccc3c(c2)[C@@H](NS(=O)(=O)c2ccc(F)cc2)CCC3)n1 [Example 13] | 45 | 82 |
| Cc1cccc(CN(C(=O)C2CC2c2ccccc2)c2ccc3c(c2)C(NS(=O)(=O)c2ccccc2)CCC3)n1 (stereo not shown) [Example 7] | 43 | 68 |
